This note sets out measurements from patent US20080234233A1, “MEDICAMENT FOR TREATMENT OF NEURODEGENERATIVE DISEASES” (INSTITUTE OF MEDICINAL MOLECULAR DESIGN INC., priority 2002, published 2008).

One test concerns NF-κ B activation. The experiment in a line: Inhibitory activity of NF-κB activation, luciferase reporter assay under TNF-α stimulation in HepG2. The test is classed as cell-based, human. The following applies: HepG2, TNF-α 40 ng/ml, 4 hours. The essentials:
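HepG2 cells transiently transfected with luciferase reporter carrying five tandem NF-κB binding sites, then stimulated with TNF-α (40 ng/ml) ± compound for 4 hours. Luminescent luciferase activity measured; inhibition expressed relative to activity without compound.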

Test [1] has as its system rat hippocampus injected with human β amyloid. The experiment in a line: Inhibitory activity against hypoplasia of memory formation (LTP), Alzheimer's model by injection of human β amyloid into the rat hippocampus. The test is classed as in vivo. The following applies: 30 mg/kg intraperitoneally once a day, FIG. 1. The source says:
Several places of rat hippocampus were infused with a 1:1 mixture of A β 1-40 and A β 1-43 which are human β amyloids (Aβ) for 7 continuous days by the microinjection method. On the 8th day, bipolar stimulating electrodes were fixed to the perforate pathway, and recording electrodes were fixed to the stratum moleculare of the hippocampus dentate gyrus under urethane anesthesia. A mono-synaptic reaction was searched by about 14 to 20 mV of test pulse from the stimulating electrode. Long-term potentiations (LTP: neurophysiological memory model phenomena) were compared by the test simulation and tetanic stimulation, and the existence of hypoplasia of memory formation was verified which is a problem in Alzheimer's disease. Three days before the start of the injection of β amyloid, saline for the control group and the test compound (30 mg/kg) for the dosing group were administered intraperitoneally once a day, and a comparison of LTP was carried out.

Another test has as its system GSK3 β. The experiment in a line: Amount of phosphorylated GSK3 β in MOLT-4F cells. It counts as cell-based, human. The following applies: 2 μM, 24 hours. Here is the method:
When Compound No. 4 (2 μM) of the present invention was allowed to act on MOLT-4F cells(human leukemia cells) for 24 hours, the amount of phosphorylated GSK3 β, produced by phosphorylation of GSK3 β, was increased, and it is well presumed that similar phenomena may possibly occur in nerve cells. Since GSK3 β is inactivated by the phosphorylation, it is considered that the increase of the amount of the phosphorylated GSK3 β substantially means the inhibition of GSK3 β. […] (Refer to “The Biochemical Journal”, (England), 2001, Vol. 359, No. PT1, p. 1-16; “Current Opinion in Neurobiology”, (England), 2002, Vol. 12, No. 3, p. 275-278; “Trends in Molecular Medicine”, (England), 2002, Vol. 8, No. 3, p. 126-132; “Proceedings of The National Academy of Sciences of The United States of America”, (USA), 1996, Vol. 93, No. 7, p. 2719-2723; “The Journal of Biological Chemistry”, (USA), 2002, Vol. 277, No. 44, p. 42060-42065; “Proceedings of The National Academy of Sciences of The United States of America”, (USA), 2003, Vol. 100, No. 2, p. 721-726; “Annals of The New York Academy of Sciences”, (USA), 2000, Vol. 920, p. 107-114; “Nature”, (England), 2003, Vol. 423, No. 6938, p. 435-439; and “Neuron”, (USA), 2003, Vol. 38, No. 4, p. 555-565.)

The subject of another test is AP-1 activation. As to the kind of experiment: Inhibition against AP-1 activation by TNF α stimulation, luciferase reporter assay in HeLa. It counts as cell-based, human. To be noted: TNF-α 40 ng/ml, 4 hours. Here is the method:
Measurement of Inhibition Against AP-1 Activation by TNF α Stimulation
Using a transfection reagent(Effectene; QIAGEN), the human uterine cancer cell strain HeLa was transfected with a plasmid(pAP-1-Luc Reporter Plasmid: […]) integrated with an oligonucleotide having seven tandem copies of AP-1 binding sequences(TGACTAA) on an upstream region of firefly luciferase gene(Luc) according to the QIAGEN's protocol, and the cells were incubated for 6 to 24 hours. After addition of TNF-α (40 ng/ml) in the presence or absence of a test compound, the cells were incubated for 4 hours, and intracellular luciferase activity was measured by using PicaGene LT(TOYO INK MFG Co., Ltd.) and a chemical luminescence measurement apparatus([…]luor Plus; TECAN). The inhibitory ratio was measured as a ratio relative to the value of the luciferase activity in the absence of the test compound.

Take `O=C(Nc1cc(C(F)(F)F)cc(C(F)(F)F)c1)c1cc(Cl)ccc1O` [compound 4, N-[3,5-bis(trifluoromethylphenyl)]-5-chloro-2-hydroxybenzamide]: the “Inhibitory rate against NF-κB activation (%)” value in the test on NF-κ B activation (Drug concentration at 1 μg/mL) was 95.7%; in the test with NF-κ B activation (Drug concentration at 10 μg/mL), 97.5%. In test [1], the “inhibitory activity against hypoplasia of memory (LTP)” value is reported as “inhibitory activity against hypoplasia of memory”. Moreover, the “amount of phosphorylated GSK3 β” value with GSK3 β is “increased”. The “Inhibitory rate against AP-1 activation(%)” value worked out at 42.4% in the test on AP-1 activation (Drug concentration at 1 μg/mL) and 89.1% in the test with AP-1 activation (Drug concentration at 10 μg/mL).
